From patent US6207644A, “Peptide analogues containing a 7-membered lactam ring” (Zeneca Limited, priority 1996, dated 2001)

Assays:
HLA-DR4Dw4 = molecular target: T1, HLA-DR4Dw4 (Homo sapiens, UniProt P01903+P01911, A100K/A169T/F76Y/I96L/K127E/L162R/M171V/N62H/P40V/Q125Y/R42H/S133A/S149N/S66Y/V115G/V209L/W38E); experiment: Test A: purified HLA-DR peptide in vitro binding assay (or its variant)
T1 construct: made in house; host or cells: double-recombinant baculovirus in Sf21 insect cells (Test A), or the human JAH cell line (variant to Test A)
Procedure: Purified HLA-DR peptide in vitro binding assay. […]. At the end of the incubation period 100 μl of the incubate is transferred to Enzyme Linked ImmunoSorbant Assay (ELISA) plates (Nunc) previously coated with an anti-MHC antibody (L243-American Type Culture Collection (ATCC) HB55 as described in Lampson and Levy (1980) J. Immunol. 125, 293-299) at a concentration of 10 μg/ml for 1 hour at room temperature and blocked thereafter for 1 hour with 1% bovine serum albumin (BSA) in PBS and 0.05% Tween 20. […] The reaction is stopped by adding 2M sulphuric acid (10 μl per well) and the absorbance read at 450 nm to quantify the amount of peptide bound. The inhibitory activity of peptides is obtained by plotting absorbance against concentration. […]
To create the double-recombinant baculovirus, a cDNA encoding the β chain is cloned into the transfer vector pAcUW1 [Weyer, U; Knight, S & Possee, R D (1990) J. Gen. […] Double-recombinant viruses are detected by spotting insecT-cells, infected with randomly picked viruses from the transfection,onto membranes and reacting them with a monoclonal antibody e.g. L243 which specifically recognises the HLA-DR heterodimer. Binding of the antibody to Sf21 insecT-cells is detected using standard flow cytometry techniques, readily available in the literature. […]

HLA-DR1 = experiment: Variant to Test A: peptide selectivity binding assay, HLA-DR1; design: species or system human
Procedure: (§1) As a varient to test A, the ability of a peptide of the invention to bind to one or more HLA-DR molecules was assessed as follows:
(§2) The method used was a modification of that described by Gorga et al, 1987, J.Biol.Chem. 262, 16087-16094. Human HLA-DR antigens were purified from various cell lines by immunoaffinity chromatography. […] Protein content was determined by a Biorad protein assay and purity by SDS-PAGE electrophoresis.
(§3) 200 nM biotin-FHA307-320 in phosphate buffered saline (PBS) was incubated with either purified HLA-DR1, DR2, DR4Dw4, DR4Dw13 or DR4Dw14 (2-20 μg/ml) in V-well microtitre plates (Nunc) with or without inhibitor peptides in assay buffer (PBS, 0.01% NP40 (Sigma.)) For DR3 inhibition, 400 nM Biotin-Ahx-(D)Ala-Ala-Ala-Che-Ile-Ala-Ala-Ala-Thr-Leu-Lys-Ala-Ala-(D)Ala-OH (SEQ ID NO:25) was incubated with purified DR3 (20 μg/ml), and incubated as above. After 48 hours, the incubates were treated, and absorbance readings taken as described in Test A. The inhibitory activity of peptides, expressed as IC50 values, was calculating using Microcal Origin software on a PC.

HLA-DR2 = experiment: Variant to Test A: peptide selectivity binding assay, HLA-DR2; design: species or system human
Procedure: as §1, §2, §3

HLA-DR3 = experiment: Variant to Test A: peptide selectivity binding assay, HLA-DR3; design: species or system human; settings: no significant binding
Procedure: as §1, §2, §3

BALB/C mice = experiment: Test C: peptide stimulated DTH (delayed type hypersensitivity) in BALB/C mice; format: in vivo; settings: osmotic mini-pump
Procedure: Peptide stimulated DTH (delayed type hypersensitivity) in BALB/C mice. […] Balb/c female mice (18-20 g), 5 per group, were immunised sub-cutaneously on the flank with 0.1 ml of an emulsion of ovalbumin (Sigma) (2 mg/ml in saline) mixed 1:1 (v/v) with complete Freunds adjurant (Sigma). Seven days later footpad thickness was detemined using a dual caliper micrometer followed by a challenge in one hind footpad with a 30 μl sub-plantar injection of 1% heat-aggregated ovalbumin protein in saline. Twenty-four hours after antigen challenge, footpads were measured and the DTH response calculated as the percentage increase in footpad thickness in the injected footpad compared to contralateral control. Inhibitors were adminstered by 3-day osmotic mini-pumps (Alzet) implanted 24 hours prior to antigen challenge at doses ranging from 10 mg/kg/day to 0.1 μg/kg/day. The degree of inhibition was calculated by substracting the value for swelling of inhibitor treated footpads from that of the vehicle dosed controls, dividing by the control value and multiplying by 100%.

[1] = Aqueous stability of peptide in McIlvaine's buffer; format: physicochemical
Procedure: A typical procedure for measuring the stability of a peptide compound of the present invention is as follows, in which, to minimize microbial contamination and degradation, all equipment that is used to prepare peptide solutions is sterilized in an autoclave and all material transfers carried out in a Class II laminar flow cabinet. Approximately 20 ml of McIlvaine's citric acid-phosphate buffer solution at pH 3 or 7.6 containing 0.02% sodium azide is filtered into a 50 ml bottle using a sterile […] filter unit and a 20 ml syringe. Approximately 1.2 mg of peptide is accurately weighed in a capped vial. Using a sterile pipette tip, sufficient buffer solution is added to the peptide in the vial to give a peptide concentration of 0.1 mg/ml. The vial is capped and shaken to dissolve the peptide. Using a sterile pipette tip, aliquots of approximately 1 ml of the peptide solution are transferred to 10 HPLC vials, which are then capped. 5 vials are stored at -18 and 37° C. The area of the peptide peak for the solution is determined by HPLC using appropriate standards initially and after storage at -18 and 37° C. for 1, 2, 3 and 4 weeks, using a fresh vial at each time point with duplicate sample injections. The percentage of peptide remaining after storage at 37° C. at each time point is determined from the ratio of the area of the peptide peak at each time point to the initial area. […]

[2] = Loss of peptide due to degradation on extrusion of polymer depot formulation; format: physicochemical; settings: in the form of a polymer depot formulation
Procedure: Typical procedures for measuring the level of degradation of a peptide compound of the present invention are as follows:
About 20 mg of peptide is accurately weighed and sufficient polymer (50/50% molar poly(D,L-lactic acid/glycolic acid) copolymer of approximate weight average molecular weight 20 kD and approximate polydispersity of 1.7 as determined by size exclusion chromatography relative to polystyrene standards) added to produce an approximate 20% w/w mixture. This is dissolved in anhydride-free glacial acetic acid to produce an approximate 10% w/v solution. The solution is freeze dried and the resulting freeze dried product is stored under vacuum prior to use.
About 100 mg of freeze dried material is loaded into the barrel of a small laboratory extruder and the plunger pushed down to consolidate the sample. […]
Each standard is filtered through a 5 μm Millex PTFE filter and an aliquot of filtrate, together with aliquots of the solutions A, analysed by HPLC using duplicate sample injections. The peptide content of the extruded polymer depot formulation of peptide is calculated from the concentration of peptide in solutions A, which is determined by comparing the area of the peptide peak in solutions A with the area of the peptide peak from the standard solutions.

[3] = Degradation of peptide on in vitro release from an extruded polymer depot; format: physicochemical; settings: in the form of a polymer depot formulation
Procedure: A solution of McIlvaine's citric acid-phosphate buffer solution at pH 7.6 containing 0.02% sodium azide, is filtered through a 0.22μ filter and stored at 4° C. Approximately 10 mg of extruded polymer depot containing peptide is placed in two small vials and 2 ml of the buffer solution added. The vials are then capped and stored in a water bath at 37° C. for a month. At suitable time points over a month, three 0.6 ml aliquots of release medium are removed from each vial and either analysed by HPLC or stored frozen in an HPLC vial at -18° C. prior to analysis by HPLC. 1.8 ml of the buffer solution is added to each vial containing the depot to replace the release medium that has been removed at each time point.
The average amount of intact peptide in the release medium at each time point is determined by HPLC using duplicate sample injections by comparing the area of the peptide peak in the release media with the area of the peptide peak from standard buffer solutions of peptide at known concentrations. The approximate average amount of peptide degradation products in the release media at each time point is determined by HPLC by comparing the area of additional new peaks in the release media with the area of the peptide peak from standard buffer solutions of peptide at known concentrations and assuming the extinction coefficient has not changed. […]

Compound: C[C@H](NC(=O)CN1CCCC[C@H](NC(=O)[C@H](C)NC(=O)[C@H](C)NC(=O)[C@H](CCCNC(=N)N)NC(=O)CCCCc2ccccc2)C1=O)C(=O)N[C@@H](C)C(=O)N[C@@H](C)C(=O)Nc1ccc(CC(N)=O)cc1 [Example 1, Phv-Arg-Ala-Ala-IIb-Ala-Ala-Ala-Papa-NH2]
- concentration showing significant binding to HLA-DR4Dw4 (HLA-DR4Dw4): ≤ 0.1 µM
- binding to HLA-DR1 (HLA-DR1): significant binding
- binding to HLA-DR2 (HLA-DR2): significant binding
- IC50 (HLA-DR3): > 100 µM
- dose at which active in Test C (BALB/C mice): < 0.1 mg/kg/day
- aqueous stability ([1]; pH3): good aqueous stability
- aqueous stability ([1]; pH7.6): good aqueous stability
- loss due to degradation on extrusion [2]: minimal loss due to degradation on extrusion
- degradation on release from depot formulation [3]: minimal degradation on release
